The values below come from patent EP1803452A1, “ESTER DERIVATIVE AND PHARMACEUTICAL USE THEREOF” (Japan Tobacco, Inc., priority 2004, dated 2006).

Data set [1] in a line: Metabolic stability test in liver S9. Format: in vitro ADME. To be noted: pH 7.4, human liver S9 2 mg protein/mL, LC/MS; for remaining at 10 min: unchanged form after 10 minutes at 37°C, read-out: Remaining rate in human liver S9 (%/10min); for remaining at 1 h: unchanged form after 60 minutes at 37°C, read-out: Remaining rate in human liver S9 (%/60min). In a few lines: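 Compound from DMSO solution was incubated at 37°C with human liver S9 (final 2 mg protein/mL) in 100 mM potassium phosphate pH 7.4 with an NADPH-regenerating system for 0, 10 and 60 minutes. Reactions were stopped with acetonitrile/0.1% formic acid. Unchanged compound was measured by LC/MS as remaining rate (%) relative to zero time.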

The nature of data set [2]: Metabolic stability test in plasma. Format: in vitro ADME, human. Particulars: LC/MS; for remaining at 10 min: unchanged form after 10 minutes at 37°C in human plasma, read-out: Remaining rate in human plasma (%/10min); for remaining at 1 h: unchanged form after 60 minutes at 37°C in human plasma, read-out: Remaining rate in human plasma (%/60min). The gist of the method: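 Remaining rate (%) versus zero time was derived from LC/MS measurement of parent compound after centrifugation. Plasma from human, mouse and hamster received DMSO-dissolved compound and was held at 37°C for 0, 10 or 60 minutes before acetonitrile containing formic acid (final 0.1%) stopped the reaction.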

Data set [3] is described as follows: Stability test in buffer (pH 7.4). The data set is classed as physicochemical. To be noted: phosphate buffer/acetonitrile 7:3, 100 mM potassium phosphate buffer (pH 7.4) and acetonitrile 7:3 (v/v), LC/MS; for remaining at 10 min: 10 minutes at 37°C, read-out: Buf. remaining rate (%/10min); for remaining at 1 h: 60 minutes at 37°C, read-out: Buf. remaining rate (%/60min). In a few lines: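 Parent compound measured by LC/MS after 0, 10 or 60 min at 37°C in a 7:3 (v/v) mix of 100 mM potassium phosphate buffer and acetonitrile, with the reaction stopped by acetonitrile plus formic acid (final 0.1%). Percentage remaining is expressed relative to the zero-time amount.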

For the compound `COC(=O)c1ccc(OC(=O)CCCc2ccc(NC(=O)c3ccccc3-c3ccc(C(F)(F)F)cn3)c(C(=O)N(C)C)c2)cc1` [Compound 1-19, 4-(4-{3-dimethylcarbamoyl-4-[2-(5-trifluoromethylpyridin-2-yl)benzoylamino]phenyl}butyryloxy)benzoic acid methyl ester], the remaining at 10 min stood at 0% in data set [1], 0% in data set [2] and 107% in data set [3]. Also, the remaining at 1 h in data set [1] amounted to 0%; in data set [2] it was 0%; in data set [3] it was 100%.

Regarding `COC(=O)c1ccc(-c2nc(C)ccc2C(=O)Nc2ccc(CCCC(=O)Oc3c(C)cc(C(=O)OC)cc3C(=O)OC)cc2C(=O)N(C)C)cc1` [Compound 4-2, 4-[4-(3-dimethylcarbamoyl-4-{[2-(4-methoxycarbonylphenyl)-6-methylpyridine-3-carbonyl]amino}phenyl)butyryloxy]-5-methylisophthalic acid dimethyl ester], the remaining at 10 min came out at 2% in data set [1], 34% in data set [2] and 98% in data set [3]. Moreover, the remaining at 1 h in data set [1] amounted to 0%; in data set [2], 0%; in data set [3], 97%.

For `COC(=O)c1ccc(OC(=O)CCCc2ccc(NC(=O)c3cccnc3-c3ccc(C(F)(F)F)cc3)c(C(=O)N(C)C)c2)cc1` [Compound 1-28, 4-[4-(3-dimethylcarbamoyl-4-{[2-(4-trifluoromethylphenyl)pyridine-3-carbonyl]amino}phenyl)butyryloxy]benzoic acid methyl ester], the remaining at 10 min in data set [1] turned out to be 0%; in data set [2], 0%; in data set [3] it was 101%. Also, the remaining at 1 h in data set [1] turned out to be 0%; in data set [2], 0%; in data set [3], 102%.

Regarding `CN(C)C(=O)c1cc(CCCC(=O)Oc2ccc(C(=O)OCCCO)cc2)ccc1NC(=O)c1ccccc1-c1ccc(C(F)(F)F)cc1` [Compound 1-92, 4-[4-(3-dimethylcarbamoyl-4-{(4'-trifluoromethylbiphenyl-2-carbonyl)amino}phenyl)butyryloxy]benzoic acid 3-hydroxypropyl ester], the results for the remaining at 10 min in data set [1], in data set [2] and in data set [3] were 0%, 71% and 102%, respectively. In addition, the remaining at 1 h was found to be 0% in data set [1], 6% in data set [2] and 107% in data set [3].

For `CN(C)C(=O)c1cc(CCCC(=O)Oc2ccc(C(=O)OCc3cccs3)cc2)ccc1NC(=O)c1ccccc1-c1ccc(C(F)(F)F)cc1` [Compound 1-98, 4-[4-(3-dimethylcarbamoyl-4-{(4'-trifluoromethylbiphenyl-2-carbonyl)amino}phenyl)butyryloxy]benzoic acid thiophen-2-ylmethyl ester], the remaining at 10 min in data set [1] was 6%; in data set [2] it was 5%; in data set [3], 101%. Also, the remaining at 1 h came to 0% in data set [1], 0% in data set [2] and 99% in data set [3].

Consider `CC(C)OC(=O)COC(=O)c1ccc(OC(=O)CCCc2ccc(NC(=O)c3ccccc3-c3ccc(C(F)(F)F)cc3)c(C(=O)N(C)C)c2)cc1` [Compound 1-102, 4-[4-(3-dimethylcarbamoyl-4-{(4'-trifluoromethylbiphenyl-2-carbonyl)amino}phenyl)butyryloxy]benzoic acid isopropoxycarbonylmethyl ester], for which the remaining at 10 min in data set [1] came to 0%; in data set [2] it was 46%; in data set [3], 98%. Further, the remaining at 1 h came out at 0% in data set [1], 0% in data set [2] and 101% in data set [3].
